Data set [1] in a line: free and bound Vancomycin fractions by SPE extraction and Gibbs reaction colorimetry. In kind it is in vitro ADME. The following applies: commercially available whole human serum spiked with 29 μM Vancomycin, absorbance at 589 nm, n=3, error = standard deviation. Here is the method:
A 1 ml whole serum sample (WHS) spiked with Vancomycin is applied to a 30 mg/1 ml reversed phase Strata™-X (polystyrene-divinylbenzene-N-vinylpyrrolidone copolymer) SPE column from Phenomenex (Torrance, Calif.). The column is washed firstly with 2 ml water to remove weakly bound impurities. This washing step may be repeated if necessary. Then a known volume (1 ml) of an organic solvent such as, but not limited to, methanol is used to elute the free Vancomycin fraction from the sorbent. This optionally may be followed by another organic washing step, e.g. another washing step with an organic solvent, which may be the same solvent or a different solvent as used in the elution step. The bound Vancomycin fraction is then eluted from the SPE column using a known volume (0.5 ml) of a mixture of one-third water and two-thirds methanol (by volume).
A 350 μl fraction of each elute is then transferred into separate vials. Then 50 μl of 3.625 mM Gibbs in methanol is added to each vial, followed by 40 μl of 0.4 M sodium hydroxide in borate buffer or water, which initiates the coupling reaction and results in an immediate colour change. After a shake, typically 350 μl of each mixture is transferred into a cuvette and their spectra are measured via a spectrophotometer. […]

For data set [2] the following is noted: Zeitlinger et al. 2011, cited from earlier work.

For the compound `CN[C@H](CC(C)C)C(=O)N[C@H]1C(=O)N[C@@H](CC(N)=O)C(=O)N[C@H]2C(=O)N[C@H]3C(=O)N[C@H](C(=O)N[C@H](C(=O)O)c4cc(O)cc(O)c4-c4cc3ccc4O)[C@H](O)c3ccc(c(Cl)c3)Oc3cc2cc(c3O[C@@H]2O[C@H](CO)[C@@H](O)[C@H](O)[C@H]2O[C@H]2C[C@](C)(N)[C@H](O)[C@H](C)O2)Oc2ccc(cc2Cl)[C@H]1O` [Vancomycin], in data set [1] (methanol elute), the “percentage of Vancomycin free” value is 63±12%. Also, in data set [1] (water/methanol (1:2) elute), the “percentage of Vancomycin bound” value worked out at 37±2%. In data set [2] (often quoted mean), the mean fraction bound is recorded as 55%. In data set [2] (range of protein binding), the “protein bound (variation)” value is recorded as 10-82%.

The values are drawn from patent US10591496B2, “Analyte extraction apparatus and method” (Sphere Medical Limited, priority 2013, dated 2020).
